Laboratory results published in patent publication US20230113037A1 (Bayer Aktiengesellschaft, priority 2019, published 2023).
Like-named read-outs stand apart in the source and are kept apart here.

Experiments:
AHR [1] = target: T1, AHR (Mus musculus, UniProt P30561); test: In vitro assay 3: antagonism in mouse cell line (AHR transactivation, firefly luciferase reporter, kynurenic acid prestimulated); format: cell-based
T1 sequence (P30561 1-848 P471L/N533S/M589L): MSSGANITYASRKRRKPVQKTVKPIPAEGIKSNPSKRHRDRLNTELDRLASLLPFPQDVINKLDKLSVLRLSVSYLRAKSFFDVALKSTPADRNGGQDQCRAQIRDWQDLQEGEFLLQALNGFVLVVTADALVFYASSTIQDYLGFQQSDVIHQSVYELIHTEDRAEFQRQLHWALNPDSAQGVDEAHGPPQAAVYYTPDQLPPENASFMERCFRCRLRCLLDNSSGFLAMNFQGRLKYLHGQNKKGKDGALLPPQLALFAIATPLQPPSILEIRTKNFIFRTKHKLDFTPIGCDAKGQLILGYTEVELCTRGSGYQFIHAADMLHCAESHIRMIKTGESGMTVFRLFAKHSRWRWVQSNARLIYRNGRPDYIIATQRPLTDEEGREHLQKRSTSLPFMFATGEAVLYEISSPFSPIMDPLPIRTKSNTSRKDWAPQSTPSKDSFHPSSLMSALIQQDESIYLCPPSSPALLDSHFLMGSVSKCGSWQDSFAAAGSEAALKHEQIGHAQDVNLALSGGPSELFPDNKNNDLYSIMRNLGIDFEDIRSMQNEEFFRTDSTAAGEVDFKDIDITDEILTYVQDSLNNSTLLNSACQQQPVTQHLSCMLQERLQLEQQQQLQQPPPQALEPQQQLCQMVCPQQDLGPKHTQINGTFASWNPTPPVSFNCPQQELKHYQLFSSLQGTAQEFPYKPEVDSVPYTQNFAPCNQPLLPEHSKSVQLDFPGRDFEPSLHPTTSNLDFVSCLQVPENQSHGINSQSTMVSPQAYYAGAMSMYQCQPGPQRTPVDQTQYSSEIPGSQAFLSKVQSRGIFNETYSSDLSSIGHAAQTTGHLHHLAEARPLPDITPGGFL
Outline: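 Mouse cells stably carrying a DRE-driven, AHR-inducible firefly luciferase reporter were prestimulated with the endogenous agonist kynurenic acid before compound addition. Luciferase activity was measured by luminescence and normalized to positive and negative controls, with cells lacking kynurenic acid serving as full-inhibition control. Repeat tests are reported as mean or median.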

AHR [2] = target: T2, AHR (Homo sapiens, UniProt P35869); test: In vitro assay 1: antagonism in human cell line (AHR transactivation, firefly luciferase reporter, kynurenic acid prestimulated); format: cell-based; settings: AHR Antagonism Human IC50 [M]
T2 construct: U87 MG glioblastoma cells (ATCC #HTB-14) endogenously expressing AHR; endogenous in cells; host or cells: U87 MG glioblastoma cells (ATCC #HTB-14)
T2 sequence (P35869 11-848): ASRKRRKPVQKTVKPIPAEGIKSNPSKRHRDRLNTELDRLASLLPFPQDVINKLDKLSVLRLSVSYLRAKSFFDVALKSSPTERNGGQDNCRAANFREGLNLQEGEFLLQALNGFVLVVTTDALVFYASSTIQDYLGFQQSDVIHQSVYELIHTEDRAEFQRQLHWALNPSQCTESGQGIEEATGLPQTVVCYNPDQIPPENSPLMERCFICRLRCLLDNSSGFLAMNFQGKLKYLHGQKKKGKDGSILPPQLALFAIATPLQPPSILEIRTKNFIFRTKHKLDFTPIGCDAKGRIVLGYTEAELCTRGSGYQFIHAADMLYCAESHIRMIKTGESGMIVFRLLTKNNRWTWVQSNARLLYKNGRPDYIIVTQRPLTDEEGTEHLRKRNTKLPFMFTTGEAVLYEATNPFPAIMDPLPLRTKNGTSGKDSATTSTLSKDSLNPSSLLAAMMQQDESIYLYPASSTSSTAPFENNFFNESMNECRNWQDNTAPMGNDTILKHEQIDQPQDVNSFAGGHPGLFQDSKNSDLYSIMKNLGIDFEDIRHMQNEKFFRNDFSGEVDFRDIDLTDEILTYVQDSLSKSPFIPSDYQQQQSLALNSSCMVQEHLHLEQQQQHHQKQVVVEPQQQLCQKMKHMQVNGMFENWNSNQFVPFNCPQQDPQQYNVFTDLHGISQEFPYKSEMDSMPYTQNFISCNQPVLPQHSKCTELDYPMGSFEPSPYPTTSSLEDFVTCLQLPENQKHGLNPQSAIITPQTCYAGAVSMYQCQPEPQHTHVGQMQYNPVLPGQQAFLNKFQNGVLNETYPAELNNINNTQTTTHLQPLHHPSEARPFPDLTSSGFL
Outline: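 U87 MG + DRE-firefly/constitutive-Renilla stable reporters; kynurenic acid prestim; dual-luc read; Renilla = tox; normalized vs pos/neg controls (pos: 150 μM KYNA + 5 μM staurosporine).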

[3] = mouse Hepa 1c1c7 cells, 200 μM kynurenic acid, 20 hours, read-out: AHR Antagonism Mouse IC50
[4] = Hepa 1c1c7 cells, 200 μM kynurenic acid, 20 hours, firefly luciferase reporter, read-out: AHR Antagonism Mouse IC50

| SMILES | IC50 (AHR [2]; firefly luciferase reporter) [M] | IC50 (AHR [1]; [3]) [nM] | IC50 (AHR [2]) [M] | IC50 (AHR [1]; [4]) [nM] | IC50 (AHR [1]; read-out: AHR Antagonism Mouse IC50, Hepa 1c1c7 cells, 200 μM kynurenic acid, 20 hours, firefly luciferase reporter) [nM] |
| --- | --- | --- | --- | --- | --- |
| O=C1NCCNC[C@H]1Nc1nc2c(Br)cccc2c2nc(-c3cnn(C4CC4)c3)nn12 [Example 952, (6R)-6-{[7-bromo-2-(1-cyclopropyl-1H-pyrazol-4-yl)[1,2,4]triazolo[1,5-c]quinazolin-5-yl]amino}-1,4-diazepan-5-one] | 3.97e-09 |  |  |  | 6.74 |
| Cc1nn(C(C)C)cc1-c1nc2c3cccc(C(F)(F)F)c3nc(N[C@@H]3CCCCNC3=O)n2n1 [Example 748, (3R)-3-({2-[3-methyl-1-(propan-2-yl)-1H-pyrazol-4-yl]-7-(trifluoromethyl)[1,2,4]triazolo[1,5-c]quinazolin-5-yl}amino)azepan-2-one] |  | 0.656 | 3.9e-10 |  |  |
| COc1ccc(-c2nc3c4c(C)cccc4nc(N[C@@H]4CCCCNC4=O)n3n2)cc1 [Example 243, (3R)-3-{[2-(4-methoxyphenyl)-10-methyl[1,2,4]triazolo[1,5-c]quinazolin-5-yl]amino}azepan-2-one] |  | 14.8 | 4.02e-09 |  |  |
| Cn1cc(-c2nc3c4cccc(C(F)(F)F)c4nc(N[C@H]4CCCCNC4=O)n3n2)cn1 [Example 584, (3S)-3-{[2-(1-methyl-1H-pyrazol-4-yl)-7-(trifluoromethyl)[1,2,4]triazolo[1,5-c]quinazolin-5-yl]amino}azepan-2-one] |  | 153 | 4.39e-08 |  |  |
| N#Cc1ccc(-c2nc3c4cccc(Br)c4nc(N[C@@H]4CCNC4=O)n3n2)cc1 [Example 561, 4-(7-bromo-5-{[(3R)-2-oxopyrrolidin-3-yl]amino}[1,2,4]triazolo[1,5-c]quinazolin-2-yl)benzonitrile] |  | 7.55 | 3.96e-09 |  |  |
| CCn1cc(-c2nc3c4ccccc4nc(N[C@@H]4CCCCNC4=O)n3n2)c(C)n1 [Example 66, (3R)-3-{[2-(1-ethyl-3-methyl-1H-pyrazol-4-yl)[1,2,4]triazolo[1,5-c]quinazolin-5-yl]amino}azepan-2-one] |  | 1.01 | 1.36e-09 |  |  |
| Cn1cc(-c2nc3c4cccc(Br)c4nc(N[C@H]4CS(=O)(=O)CCNC4=O)n3n2)cn1 [Example 848, (6R)-6-{[7-bromo-2-(1-methyl-1H-pyrazol-4-yl)[1,2,4]triazolo[1,5-c]quinazolin-5-yl]amino}-1λ^6,4-thiazepane-1,1,5-trione] | 1.69e-07 |  |  | 197 |  |
| CCn1cc(-c2nc3c4cccc(S(C)(=O)=O)c4nc(N[C@@H]4CCCCNC4=O)n3n2)c(C)n1 [Example 847, (3R)-3-{[2-(1-ethyl-3-methyl-1H-pyrazol-4-yl)-7-(methanesulfonyl)[1,2,4]triazolo[1,5-c]quinazolin-5-yl]amino}azepan-2-one] | 3.02e-09 |  |  | 60.1 |  |
| COc1ccc(-c2nc3c4c(Cl)cccc4nc(N[C@@H]4CCCCNC4=O)n3n2)cc1 [Example 168, (3R)-3-{[10-chloro-2-(4-methoxyphenyl)[1,2,4]triazolo[1,5-c]quinazolin-5-yl]amino}azepan-2-one] |  | 2.21 | 9.09e-10 |  |  |
| Cn1cc(-c2nc3c4cccc(Br)c4nc(N[C@@H]4CCCNC4=O)n3n2)cn1 [Example 221, (3R)-3-{[7-bromo-2-(1-methyl-1H-pyrazol-4-yl)[1,2,4]triazolo[1,5-c]quinazolin-5-yl]amino}piperidin-2-one] |  | 653 | 3.46e-07 |  |  |

Continued, in another order:

| IC50 (AHR [2]; firefly luciferase reporter) [M] | IC50 (AHR [1]; [3]) [nM] | IC50 (AHR [2]) [M] | IC50 (AHR [1]; [4]) [nM] | SMILES | IC50 (AHR [1]; read-out: AHR Antagonism Mouse IC50, Hepa 1c1c7 cells, 200 μM kynurenic acid, 20 hours, firefly luciferase reporter) [nM] |
| --- | --- | --- | --- | --- | --- |
|  | > 20000 | > 2e-05 |  | O=C1NCCC[C@H]1Nc1nc2ccccc2c2nc(-c3cc(Cl)ccc3OC(F)(F)F)nn12 [Example 499, (3R)-3-({2-[5-chloro-2-(trifluoromethoxy)phenyl][1,2,4]triazolo[1,5-c]quinazolin-5-yl}amino)piperidin-2-one] |  |
|  | 6.94 | 9.3e-09 |  | O=C1NCC[C@H]1Nc1nc2ccccc2c2nc(-c3ccc(Cl)cc3OC(F)F)nn12 [Example 528, (3R)-3-({2-[4-chloro-2-(difluoromethoxy)phenyl][1,2,4]triazolo[1,5-c]quinazolin-5-yl}amino)pyrrolidin-2-one] |  |
|  | 1020 | 2.92e-06 |  | C[C@@H](Nc1nc2ccccc2c2nc(-c3cnn(C)c3)nn12)C(=O)NCCN(C)C [Example 776, N-[2-(dimethylamino)ethyl]-N^2-[2-(1-methyl-1H-pyrazol-4-yl)[1,2,4]triazolo[1,5-c]quinazolin-5-yl]-D-alaninamide] |  |
|  | 1.07 | 7.6e-10 |  | CCOc1ccc(-c2nc3c4ccccc4nc(N[C@@H]4CCCCNC4=O)n3n2)cc1 [Example 616, (3R)-3-{[2-(4-ethoxyphenyl)[1,2,4]triazolo[1,5-c]quinazolin-5-yl]amino}azepan-2-one] |  |
| 5.91e-09 |  |  | 5.13 | COc1ccc(-c2nc3c4ccccc4nc(N[C@H](C)C(=O)N4CCN(C(=O)OC(C)(C)C)CC4)n3n2)cc1 [Example 882, tert-butyl 4-{N-[2-(4-methoxyphenyl)[1,2,4]triazolo[1,5-c]quinazolin-5-yl]-D-alanyl}piperazine-1-carboxylate] |  |
|  | 0.861 | 4.83e-10 |  | CSc1ccc(-c2nc3c4ccccc4nc(N[C@@H]4CCCCNC4=O)n3n2)c(F)c1 [Example 630, (3R)-3-({2-[2-fluoro-4-(methylsulfanyl)phenyl][1,2,4]triazolo[1,5-c]quinazolin-5-yl}amino)azepan-2-one] |  |
|  | 380 | 2.08e-08 |  | COc1ccc(-c2nc3c4ccccc4nc(N[C@H]4CCNC4=O)n3n2)cc1 [Example 40, (3S)-3-{[2-(4-methoxyphenyl)[1,2,4]triazolo[1,5-c]quinazolin-5-yl]amino}pyrrolidin-2-one] |  |
| 8.61e-09 |  |  | 13.2 | CNCCNC(=O)[C@@H](C)Nc1nc2c(Br)cccc2c2nc(-c3ccc(OC)cc3)nn12 [Example 987, N^2-[7-bromo-2-(4-methoxyphenyl)[1,2,4]triazolo[1,5-c]quinazolin-5-yl]-N-[2-(methylamino)ethyl]-D-alaninamide-hydrogen chloride (1/1)] |  |
|  | 17.5 | 1.23e-08 |  | CC[C@H](Nc1nc2c(Br)cccc2c2nc(-c3ccc(C#N)cc3)nn12)C(N)=O [Example 564, (2S)-2-{[7-bromo-2-(4-cyanophenyl)[1,2,4]triazolo[1,5-c]quinazolin-5-yl]amino}butanamide] |  |
|  | 171 | 2.8e-07 |  | O=C1NCCCC[C@H]1Nc1nc2ccccc2c2nc(-c3cnn(CCCO)c3)nn12 [Example 598, (3R)-3-({2-[1-(3-hydroxypropyl)-1H-pyrazol-4-yl][1,2,4]triazolo[1,5-c]quinazolin-5-yl}amino)azepan-2-one] |  |
|  | 99.2 | 1.06e-07 |  | NC(=O)[C@@H](CO)Nc1nc2ccccc2c2nc(-c3cccc(OC(F)(F)F)c3)nn12 [Example 313, N^2-{2-[3-(trifluoromethoxy)phenyl][1,2,4]triazolo[1,5-c]quinazolin-5-yl}-D-serinamide] |  |
